The target in one experiment is isomerase (Mus musculus (Mouse), UniProt Q91ZQ5). The experiment can be described thus: In vivo murine isomerase assay (recovery of 11-cis-retinal after photobleaching). Details: species or system mice. To be noted: for inhibition at 1 mg/kg: read-out: % Inhibition 1 mg/kg, 4 h; for ED50: in vivo inhibition of isomerase, Table 10. How it is done: The capability of compounds described herein to inhibit isomerase was determined by an in vivo murine isomerase assay. Brief exposure of the eye to intense light (“photobleaching” of the visual pigment or simply “bleaching”) is known to photo-isomerize almost all 11-cis-retinal in the retina. The recovery of 11-cis-retinal after bleaching can be used to estimate the activity of isomerase in vivo. Delayed recovery, as represented by lower 11-cis-retinal oxime levels, indicates inhibition of isomerization reaction.
isomerase, sequence (Q91ZQ5 whole entry): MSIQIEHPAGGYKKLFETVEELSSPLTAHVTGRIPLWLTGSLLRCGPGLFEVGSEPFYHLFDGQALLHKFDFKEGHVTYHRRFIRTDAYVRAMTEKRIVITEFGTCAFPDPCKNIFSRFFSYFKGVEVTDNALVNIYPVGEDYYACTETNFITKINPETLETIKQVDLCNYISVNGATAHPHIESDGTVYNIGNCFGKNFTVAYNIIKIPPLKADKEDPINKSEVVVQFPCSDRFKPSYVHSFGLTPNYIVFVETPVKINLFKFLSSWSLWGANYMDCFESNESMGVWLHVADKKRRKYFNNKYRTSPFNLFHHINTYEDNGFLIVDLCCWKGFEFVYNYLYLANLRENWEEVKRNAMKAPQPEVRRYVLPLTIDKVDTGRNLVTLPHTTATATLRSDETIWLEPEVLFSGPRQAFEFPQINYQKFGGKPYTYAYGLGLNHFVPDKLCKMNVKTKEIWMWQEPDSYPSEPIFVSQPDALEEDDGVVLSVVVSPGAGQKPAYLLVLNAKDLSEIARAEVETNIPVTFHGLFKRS
The mice were allowed to recover 2 hours in the dark. The animals were then sacrificed by carbon dioxide inhalation. Retinoids were extracted from the eye and the regeneration of 11-cis-retinal was assessed at various time intervals.
After the mice were sacrificed, the eyes were immediately removed and placed in liquid nitrogen for storage.
The eyes were placed in 500 μL of bis-tris propane buffer (10 mM, pH ˜7.3) and 20 µL of 0.8M hydroxile amine (pH-7.3). The eyes were cut up into small pieces with small iris scissors and then thoroughly homogenized at 30000 rpm with a mechanical homogenizer (Polytron PT 1300 D) in the tube until no visible tissue remained. 500 μL of methanol and 500 μL of heptane were added to each tube. The tubes were attached to a vortexer so that the contents were mixed thoroughly for 15 minutes in room temperature. The organic phase was separated from the aqueous phase by centrifugation for 10 min at 13K rpm, 4° C. 240 μL of the solution from the top layer (organic phase) was removed and transferred to clean 300 μl glass inserts in HPLC vials using glass pipette and the vials were crimped shut tightly.
Loading volume for each sample is 100 μl; detection wavelength is 360 nm. The area under the curve for 11-cis retinal oxime was calculated by Agilent Chemstation software and was recorded manually. Data processing was performed using Prizm software.
Positive control mice (no compound administered) were sacrificed fully dark-adapted and the eye retinoids analyzed. Light (bleached) control mice (no compound administered) were sacrificed and retinoids isolated and analyzed immediately after light treatment.
Mice were sacrificed 2 hours after bleaching, eyes were enucleated, and retinoid content was analyzed by HPLC.
Recovery control mice (vehicle-only treated) were light-treated and left to recover for 2 hours in the dark before sacrifice and analysis. Light control mice (vehicle only treated) were sacrificed for analysis immediately after photo-bleaching.

A further experiment addresses visual cycle isomerase (Bos taurus (Bovine), UniProt Q28175). The experiment can be described thus: Bovine in vitro isomerase inhibition assay (RPE microsome membranes).
Experiment [1] has as its target recombinant human RPE65 and LRAT (Homo sapiens (Human), UniProt Q16518). As to the kind of experiment: Human in vitro isomerase inhibition assay. The format is biochemical. To be noted: Human in vitro Inhibition data; inhibition of 11-cis-retinol formation; HEK293 homogenate, all-trans-retinol about 20 μM, 37° C., one hour; given as ranges. As for the experimental part:
The concentration dependent effect of the compounds disclosed herein on the retinol isomerization reaction was also evaluated with a recombinant human enzyme system. […] A homogenate of HEK293 cell clone expressing recombinant human RPE65 and LRAT were the source of the visual enzymes, and exogenous all-trans-retinol (about 20 μM) was used as the substrate. Recombinant human CRALBP (about 80 ug/mL) was added to enhance the formation of 11 cis-retinal. The 200 μL Bis-Tris Phosphate buffer (10 mM, pH 7.2) based reaction mixture also contains 0.5% BSA, and 1 mM NaPPi. In this assay, the reaction was carried out at 37° C. in duplicates for one hour and was terminated by addition of 300 μL methanol. The amount of reaction product, 11-cis-retinol, was measured by HPLC analysis following Heptane extraction of the reaction mixture. […] The ability of the numerous compounds disclosed herein to inhibit isomerization reaction is quantified and the respective IC50 value is determined.

[2] abbreviates: Bovine in vitro Inhibition data, inhibition of 11-cis retinol formation, bovine RPE microsomes, 20 μM all-trans retinol, 37° C., 30 minutes, given as ranges.

Where two headings read alike, the source gives them in different places.

visual cycle isomerase, sequence (Q28175 2-533): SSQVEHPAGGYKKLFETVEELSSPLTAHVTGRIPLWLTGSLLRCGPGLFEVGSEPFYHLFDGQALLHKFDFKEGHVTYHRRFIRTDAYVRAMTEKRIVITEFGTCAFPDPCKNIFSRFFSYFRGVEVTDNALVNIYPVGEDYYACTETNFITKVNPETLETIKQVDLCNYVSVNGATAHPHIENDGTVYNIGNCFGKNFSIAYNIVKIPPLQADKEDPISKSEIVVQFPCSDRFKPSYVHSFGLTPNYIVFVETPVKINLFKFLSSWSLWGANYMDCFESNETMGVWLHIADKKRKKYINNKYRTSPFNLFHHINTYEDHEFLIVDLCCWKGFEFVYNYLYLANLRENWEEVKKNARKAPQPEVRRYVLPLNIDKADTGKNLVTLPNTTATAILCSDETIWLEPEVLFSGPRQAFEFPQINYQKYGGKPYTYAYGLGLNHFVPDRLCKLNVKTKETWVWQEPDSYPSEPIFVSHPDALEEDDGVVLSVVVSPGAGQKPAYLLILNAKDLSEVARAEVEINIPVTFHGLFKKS
recombinant human RPE65 and LRAT, sequence (Q16518 2-533): as the sequence (Q28175 2-533) above, with S2I, I135V, V154I, I299L, H320N, E321G, G426C counted along it
Method for visual cycle isomerase: The capability of compounds disclosed herein to inhibit the activity of a visual cycle isomerase was determined.
All tests were performed in duplicate.

For the compound `NCCCc1cccc(OCC2CCCCC2)c1` [Example 1, 3-(3-(Cyclohexylmethoxy)phenyl)propan-1-amine], on isomerase, the inhibition at 1 mg/kg was determined as 68%. Moreover, the IC50 against visual cycle isomerase (setting [2]) was ≤ 1 µM.
For `CCCC(CCC)COc1cccc(CCCN)c1` [Example 2, 3-(3-(2-Propylpentyloxy)phenyl)propan-1-amine], the inhibition at 1 mg/kg at isomerase amounted to 1%. At visual cycle isomerase (setting [2]), the IC50 was ≤ 1 µM.
Consider `CCC(CC)COc1cccc(CCCN)c1` [Example 3, 3-(3-(2-Ethylbutoxy)phenyl)propan-1-amine], for which, on isomerase, the inhibition at 1 mg/kg was determined as 12%. Also, the IC50 at visual cycle isomerase (setting [2]) is ≤ 1 µM.
For the compound `NCCC(=O)c1cccc(OCC2CCCCC2)c1` [Example 5, 3-Amino-1-(3-(cyclohexylmethoxy)phenyl)propan-1-one], the ED50 at isomerase came to 1 mg/kg. On visual cycle isomerase (setting [2]), the IC50 is ≤ 1 µM.
On to `NCC(O)Cc1cccc(OCC2CCCCC2)c1` (stereo not shown) [Example 6, 1-Amino-3-(3-(cyclohexylmethoxy)phenyl)propan-2-ol], for which the IC50 at visual cycle isomerase (setting [2]) was ≤ 1 µM.
On to `NCCOc1cccc(OCC2CCCCC2)c1` [Example 7, 2-(3-(Cyclohexylmethoxy)phenoxy)ethanamine], for which, on isomerase, the ED50 worked out at 4.2 mg/kg and the inhibition at 1 mg/kg came out at 17%. Further, the half-maximal inhibitory concentration (IC50) against visual cycle isomerase (setting [2]) was ≤ 1 µM.
Consider `NCCOc1cccc(OCc2ccccc2)c1` [Example 8, 2-(3-(Benzyloxy)phenoxy)ethanamine], for which the IC50 at visual cycle isomerase was in the range of 1 to 10 µM.
Turning to `NCCOc1cccc(OCC2CCCCCC2)c1` [Example 9, 2-(3-(Cycloheptylmethoxy)phenoxy)ethanamine], the inhibition at 1 mg/kg on isomerase was 6%. Moreover, the IC50 against visual cycle isomerase (setting [2]) was ≤ 1 µM.
As to `NCCCc1cccc(OCC2(O)CCCCC2)c1` [Example 10, 1-((3-(3-Aminopropyl)phenoxy)methyl)cyclohexanol], the IC50 against visual cycle isomerase (setting [2]) was ≤ 1 µM.
Consider `NCCCc1cccc(OCC2(O)CCCCCC2)c1` [Example 11, 1-((3-(3-aminopropyl)phenoxy)methyl)cycloheptanol], for which, on visual cycle isomerase (setting [2]), the half-inhibitory concentration (IC50) was ≤ 1 µM.
In the case of `NCCC(O)c1cccc(OCC2(O)CCCCC2)c1` (stereo not shown) [Example 12, 1-((3-(3-Amino-1-Hydroxypropyl)Phenoxy)Methyl)Cyclohexanol], on isomerase, the inhibition at 1 mg/kg worked out at 59%. Moreover, the IC50 on visual cycle isomerase (setting [2]) was ≤ 1 µM.
With `NCCC(O)c1cccc(OCC2(O)CCCCCC2)c1` (stereo not shown) [Example 13, 1-((3-(3-Amino-1-Hydroxypropyl)Phenoxy)Methyl)Cycloheptanol], the values for the half-inhibitory concentration (IC50) (in experiment [1]; on visual cycle isomerase (setting [2])) were ≤ 0.01 µM and ≤ 1 µM, respectively. The inhibition at 1 mg/kg at isomerase turned out to be 41%.
Turning to `NCCCc1cccc(OCC2CCCCCC2)c1` [Example 14, 3-(3-(Cycloheptylmethoxy)phenyl)propan-1-amine], the inhibition at 1 mg/kg on isomerase was found to be 89%. Moreover, the concentration for half-maximal inhibition (IC50) against visual cycle isomerase (setting [2]) is ≤ 1 µM.
On to `NCCC(O)c1cccc(OCC2CCCCCC2)c1` (stereo not shown) [Example 15, 3-Amino-1-(3-(cycloheptylmethoxy)phenyl)propan-1-ol], for which the concentration for half-maximal inhibition (IC50) is ≤ 0.01 µM in experiment [1] and ≤ 1 µM at visual cycle isomerase (setting [2]). Moreover, the inhibition at 1 mg/kg at isomerase worked out at 91%.
As to `NCCC(=O)c1cccc(OCC2CCCCCC2)c1` [Example 16, 3-amino-1-(3-(cycloheptylmethoxy)phenyl)propan-1-one], the inhibition at 1 mg/kg on isomerase stood at 60%. Moreover, at visual cycle isomerase (setting [2]), the IC50 is ≤ 1 µM.
Regarding `CCCC(CCC)COc1cccc(C(O)CCN)c1` (stereo not shown) [Example 17, 3-Amino-1-(3-(2-propylpentyloxy)phenyl)propan-1-ol], the 50% inhibitory concentration (IC50) in experiment [1] was ≤ 0.01 µM; on visual cycle isomerase (setting [2]), ≤ 1 µM. Besides, the inhibition at 1 mg/kg at isomerase turned out to be 96%.
`NCCOc1cccc(OCC2(O)CCCCCC2)c1` [Example 18, 1-((3-(2-Aminoethoxy)Phenoxy)Methyl)Cycloheptanol]: on visual cycle isomerase, the IC50 fell in the range of 1 to 10 µM.
On visual cycle isomerase, `CC(=O)NCCC(O)c1cccc(OCC2CCCCC2)c1` (stereo not shown) [Example 19, N-(3-(3-(cyclohexylmethoxy)phenyl)-3-hydroxypropyl)acetamide] came in with an IC50 of 1 to 10 µM.
For the compound `CCCC(O)(CCC)COc1cccc(C(O)CCN)c1` (stereo not shown) [Example 20, 4-((3-(3-Amino-1-hydroxypropyl)phenoxy)methyl)heptan-4-ol], at isomerase, the inhibition at 1 mg/kg is 98%. On visual cycle isomerase (setting [2]), the 50% inhibitory concentration (IC50) was ≤ 1 µM.
For the compound `NCCC(O)c1cccc(OCC2CCCC2)c1` (stereo not shown) [Example 35, 3-Amino-1-(3-(Cyclopentylmethoxy)Phenyl)Propan-1-Ol], the half-inhibitory concentration (IC50) in experiment [1] was ≤ 0.01 µM. In addition, the inhibition at 1 mg/kg at isomerase came to 95%.
In the case of `CCC(CC)COc1cccc(C(O)CCN)c1` (stereo not shown) [Example 45, 3-Amino-1-(3-(2-ethylbutoxy)phenyl)propan-1-ol], the 50% inhibitory concentration (IC50) in experiment [1] is ≤ 0.01 µM. In addition, the inhibition at 1 mg/kg on isomerase was found to be 98%.
Turning to `NCCC(O)c1cccc(OCC2CC3CCC2C3)c1` (stereo not shown) [Example 48, 3-Amino-1-(3-(bicyclo[2.2.1]heptan-2-ylmethoxy)phenyl)propan-1-ol], in experiment [1], the half-maximal inhibitory concentration (IC50) is ≤ 0.01 µM. The inhibition at 1 mg/kg on isomerase was found to be 47%.
The corresponding values for `CCCC(CCC)COc1cccc([C@H](O)[C@H](C)CN)c1` [Example 55, (1R,2R)-3-Amino-2-methyl-1-(3-(2-propylpentyloxy)phenyl)propan-1-ol] are ≤ 0.01 µM and 82%.
The corresponding values for `C[C@H](CN)[C@@H](O)c1cccc(OCC2CCCC2)c1` [Example 56, (1R,2R)-3-Amino-1-(3-(cyclopentylmethoxy)phenyl)-2-methylpropan-1-ol] are ≤ 0.01 µM and 10%.
As to `CCC(CC)COc1cccc([C@H](O)[C@H](C)CN)c1` [Example 72, (1R,2R)-3-Amino-1-(3-(2-ethylbutoxy)phenyl)-2-methylpropan-1-ol], the IC50 in experiment [1] was ≤ 0.01 µM. Also, the inhibition at 1 mg/kg at isomerase was found to be 13%.
The corresponding values for `C[C@H](CN)[C@@H](O)c1cccc(OCC2CCCCC2)c1` [Example 74, (1R,2R)-3-Amino-1-(3-(Cyclohexylmethoxy)Phenyl)-2-Methylpropan-1-Ol] are ≤ 0.01 µM and 6%.
As to `COCCCCOc1cccc(C(O)CCN)c1` (stereo not shown) [Example 88, 3-Amino-1-(3-(4-methoxybutoxy)phenyl)propan-1-ol], the IC50 in experiment [1] was ≤ 0.01 µM. Besides, the inhibition at 1 mg/kg at isomerase was found to be 78%.

A word on the IC50: it is the point on the concentration scale where inhibition reaches its midpoint. The ED50 is the dose at which the effect has come halfway, by size or by number of responders.

(Values after patent US10188615B2, “Alkoxy compounds for disease treatment” (Acucela Inc., priority 2007, dated 2019).)
